# From patent US20210386367A1, “DEVICES AND SYSTEMS FOR GASTROINTESTINAL MICROBIOME DETECTION AND MANIPULATION” (Progenity, Inc., priority 2018, published 2021)
# Where two headings read alike, the source gives them in different places.
# Columns and labels:
# Escherichia coli = assay: Broth microdilution MIC, 50 clinical isolates (incl. ESBL, one NDM-1); assay type: cell-based
# Experimental: Minimal inhibitory concentration (MIC) values were determined by broth microdilution or agar dilution in accordance with guidelines from the Clinical and Laboratory Standards Institute (CLSI; (1) “Methods for Dilution Antimicrobial Susceptibility Tests for Bacteria That Grow Aerobically; Approved Standard; 11th ed.” CLSI standard M07-A11, 2018; (2) “Performance Standards for Antimicrobial Susceptibility Testing; Twenty-Eighth Informational Supplement,” CLSI document M100-S28, 2018; and (3) “Methods for Antimicrobial Susceptibility Testing of Anaerobic Bacteria; Approved Standard—Eighth Edition,” CLSI document M11-A8, 2012).
# Tested aerobically by broth microdilution: • Escherichia coli, n=50 • Klebsiella spp., n=50 • Pseudomonas aeruginosa, n=50 • Streptococcus spp., n=50 • Staphylococcus aureus, n=50 • Enterococcus faecalis, n=50 • Enterobacter aerogenes, n=50 • Proteus mirabilis, n=50
# Broth microdilution testing of aerobic bacteria was conducted in cation-adjusted Mueller Hinton broth (MHBII). For testing streptococci, lysed horse blood (LHB) was added to MHBII broth at a final concentration of 3%. Where LHB was used, it was added after filtering.
# Broth microdilution susceptibility testing in 96-well microplates was conducted in accordance with CLSI methods (1) and (2). Automated liquid handlers were used to conduct serial dilutions and liquid transfers, including the Multidrop 384 (Labsystems, Helsinki, Finland), Biomek 2000, and the Biomek FX (Beckman Coulter, Fullerton, Calif.). All wells in columns 2 through 12 of a standard 96-well microdilution plate (Costar 3795) were filled with 150 μL of the appropriate diluent. Then, 300 μL of the test agents were added to the wells of column 1 of the plates at 100× the highest final concentration to be tested. Serial two-fold dilutions were made across the rows through column 11 using the Biomek 2000. The wells of column 12 contained no drug and served as the growth control wells. This plate served as the “mother plate” from which MIC assay plates or “daughter plates” were made.
# The daughter plates were loaded with 190 μL per well of the appropriate medium using the Multidrop 384. The daughter plates were created using the Biomek FX which transferred 2 μL of drug solution from each well of a mother plate to each corresponding well of the daughter plate in a single step. A standardized inoculum of each test organism was prepared per CLSI methods (1) to equal a 0.5 McFarland standard, followed by a dilution of 1:20 for aerobes and 1:10 for anaerobes. The plates were then inoculated with 10 μL of the diluted inoculum using the Biomek 2000 from low to high drug concentration, resulting in a final concentration of approximately 5×10^5 CFU/mL per well. An un-inoculated plate was incubated in parallel for each medium for the purpose of assessing solubility of the drug in the test media.
# Inoculated plates were stacked 3 or 4 high, covered with a sterile lid on the top plate, placed into boxes with CO2 planchets (streptococci) or plastic bags (all other isolates). Plates were incubated at 35° C. for 16-24 hr in ambient air for aerobes or for 42-48 hr in the anaerobic environment of the Bactron II anaerobe chamber (Sheldon Manufacturing Co.; Cornelius, Oreg.). Following incubation, the microplates were removed from the incubator and viewed from the bottom using a plate viewer. The MIC values were read and recorded as the lowest concentration of drug that inhibited visible growth of the organism as per CLSI methods (1) and (2).
# E. coli ATCC 35218 = assay: Time-kill assay; assay type: cell-based, Escherichia coli; conditions: 2×, 4×, 8× MIC; 2, 6, 24 hr
# [1] = tested on: E. coli spontaneous mutants; assay: Broth microdilution MIC of spontaneous mutants; assay type: cell-based, Escherichia coli; conditions: Escherichia coli
# Experimental: Select isolates were subcultured onto agar containing drug at the selection concentration, were identified by MALDI, and were frozen for broth microdilution MIC testing as described below.
# To determine whether colonies growing on drug selection plates had elevated MIC values to the selecting antibiotic, susceptibility testing by broth microdilution was conducted on isolated mutants following methodology recommended by CLSI (1), (2), and (3) “Performance Standards for Antimicrobial Susceptibility Testing; Twenty-Eighth Informational Supplement.,” CLSI document M100-S28, 2018.
# All wells in columns 2 through 12 of a standard 96-well microdilution plate (Costar 3795) were filled with 150 μL of the appropriate diluent. Then, 300 μL of the test agents were added to the wells of column 1 of the plates at […] the highest final concentration to be tested. Serial two-fold dilutions were made across the rows through column 11 using the Biomek 2000. The wells of column 12 contained no drug and served as the growth control wells. This plate served as the “mother plate” from which selected MIC assay plates or “daughter plates” were made.
# 2 μL of drug solution from each well of a mother plate was added to each corresponding well of the daughter plate in a single step. A standardized inoculum of each aerobic test organism was prepared per CLSI methods to equal a 0.5 McFarland standard, followed by a dilution of 1:20 in MHB II. The plates were then inoculated with 10 μL of the diluted inoculum using the Biomek 2000 from low to high drug concentration, resulting in a final concentration of approximately 5×10^5 CFU/mL. An un-inoculated plate was incubated for the purpose of assessing solubility of the drug in the test media.
# The plates for the aerobic tests were stacked 3-4 high, covered with a sterile lid on the top plate, and incubated aerobically at 35° C. for 18-20 hr. The MIC was recorded as the lowest concentration of drug that inhibited visible growth of the organism.
smiles,measurement,setting,value
CO/N=C(\C(=O)N[C@@H]1C(=O)N2C(C(=O)O)=C(CSc3nc(=O)c(=O)[nH]n3C)CS[C@H]12)c1csc(N)n1 [ceftriaxone],% R,Escherichia coli,Thirty-six
same,% S,Escherichia coli,64%
same,Mode,Escherichia coli,0.03 µg/mL
same,Cumulative percentage of isolates inhibited at MIC,Escherichia coli; 0.008 μg/mL,2.0%
same,Number of test isolates at MIC,Escherichia coli; 0.008 μg/mL,1
same,Cumulative percentage of isolates inhibited at MIC,Escherichia coli; 0.015 μg/mL,1.0%
same,Number of test isolates at MIC,Escherichia coli; 0.015 μg/mL,1
same,Cumulative percentage of isolates inhibited at MIC,Escherichia coli; 0.03 μg/mL,42.0%
same,Number of test isolates at MIC,Escherichia coli; 0.03 μg/mL,19
same,Cumulative percentage of isolates inhibited at MIC,Escherichia coli; 0.06 μg/mL,58.0%
same,Number of test isolates at MIC,Escherichia coli; 0.06 μg/mL,8
same,Cumulative percentage of isolates inhibited at MIC,Escherichia coli; 8 μg/mL,68.0%
same,Number of test isolates at MIC,Escherichia coli; 8 μg/mL,2
same,Cumulative percentage of isolates inhibited at MIC,Escherichia coli; 16 μg/mL,72.0%
same,Number of test isolates at MIC,Escherichia coli; 16 μg/mL,2
same,Cumulative percentage of isolates inhibited at MIC,Escherichia coli; 64 μg/mL,76.0%
same,Number of test isolates at MIC,Escherichia coli; 64 μg/mL,2
same,Cumulative percentage of isolates inhibited at MIC,Escherichia coli; >128 μg/mL,100.0%
same,Number of test isolates at MIC,Escherichia coli; >128 μg/mL,12
same,MIC90,Escherichia coli; Escherichia coli,> 128 µg/mL
same,MIC50,"Escherichia coli; Escherichia coli, read-out: MIC50",0.06 µg/mL
same,Cumulative percentage of isolates inhibited at MIC,Escherichia coli; […],64.0%
same,Number of test isolates at MIC,Escherichia coli; […],3
same,% R,Escherichia coli; listed as CTR,36%
same,MIC90,Escherichia coli; listed as CTR,>128 µg/mL
same,time-kill kinetics outcome (bactericidal = ≥3 log reduction in CFU per mL),E. coli ATCC 35218,bactericidal at 24 hr at 4× and 8×MIC
same,MIC,"[1]; ATCC25922, E. coli ATCC 25922, selected on rifaximin 4X MIC, Colony A",0.03 µg/mL
same,MIC,"[1]; ATCC25922, E. coli ATCC 25922, selected on rifaximin 4X MIC, Colony B",0.03 µg/mL
same,MIC,"[1]; ATCC25922, E. coli ATCC 25922, selected on rifaximin 8X MIC, Colony A",0.03 µg/mL
same,MIC,"[1]; ATCC25922, E. coli ATCC 25922 Parent (Table 52)",0.12 µg/mL
same,MIC,"[1]; ATCC35218, E. coli ATCC 35218, selected on rifaximin 4X MIC, Colony A",0.03 µg/mL
same,MIC,"[1]; ATCC35218, E. coli ATCC 35218, selected on rifaximin 4X MIC, Colony B",0.03 µg/mL
same,MIC,"[1]; ATCC35218, E. coli ATCC 35218, selected on rifaximin 8X MIC, Colony A",0.06 µg/mL
same,MIC,"[1]; ATCC35218, E. coli ATCC 35218, selected on rifaximin 8X MIC, Colony B",0.03 µg/mL
same,MIC,"[1]; ATCC35218, E. coli ATCC 35218 Parent (Table 52)",0.03 µg/mL
same,MIC,"[1]; E. coli MMX 1312, selected on ceftriaxone 4X MIC, Colony A",3 µg/mL
same,MIC,"[1]; E. coli MMX 1312, selected on ceftriaxone 4X MIC, Colony B",4 µg/mL
same,MIC,"[1]; E. coli MMX 1312, selected on ceftriaxone 4X MIC, Colony C",8 µg/mL
same,MIC,"[1]; E. coli MMX 1312, selected on ceftriaxone 8X MIC, Colony A",3 µg/mL
same,MIC,"[1]; E. coli MMX 1312, selected on ceftriaxone 8X MIC, Colony B",3 µg/mL
same,MIC,"[1]; E. coli MMX 1312, selected on ceftriaxone 8X MIC, Colony C",4 µg/mL
same,MIC,"[1]; E. coli MMX 1312, selected on rifaximin 4X MIC, Colony A",2 µg/mL
same,MIC,"[1]; E. coli MMX 1312, selected on rifaximin 4X MIC, Colony B",2 µg/mL
same,MIC,"[1]; E. coli MMX 1312, selected on rifaximin 8X MIC, Colony A",8 µg/mL
same,MIC,"[1]; E. coli MMX 1312, selected on rifaximin 8X MIC, Colony B",8 µg/mL
same,MIC,[1]; E. coli MMX 1312 Parent,4 µg/mL
same,MIC,[1]; E. coli MMX 1312 Parent (Table 49),4 µg/mL
same,MIC,[1]; E. coli MMX 1312 Parent (Table 52),4 µg/mL
same,MIC,"[1]; E. coli MMX 1312 mutant selected on meropenem 4X MIC, colony A",4 µg/mL
same,MIC,"[1]; E. coli MMX 1312 mutant selected on meropenem 4X MIC, colony B",8 µg/mL
same,MIC,"[1]; E. coli MMX 1312 mutant selected on meropenem 4X MIC, colony C",4 µg/mL
same,MIC,"[1]; E. coli MMX 1312 mutant selected on meropenem 8X MIC, colony A",4 µg/mL
same,MIC,"[1]; E. coli MMX 1312 mutant selected on meropenem 8X MIC, colony B",4 µg/mL
same,MIC,"[1]; E. coli MMX 1312 mutant selected on meropenem 8X MIC, colony C",4 µg/mL
